Experiments:
Assay type in all cases: in vivo
[1] = test system: redroot pigweed (Amaranthus retroflexus, AMARE); assay: Pre-emerge test, greenhouse herbicide activity screening; conditions: pre-emerge, 14 days after application, scale 0-100
Method in brief: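 Compounds in acetone were track-sprayed at 187 l/ha, 15–1000 g ai/ha, onto sandy loam pots. Pre-emerge seeds were sown one day before spraying, with surface watering afterwards. Post-emerge plants were at the 2–3 leaf stage and sprayed with 0.25% v/v non-ionic surfactant. Injury was rated 0–100 at 14 days.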

[2] = test system: barnyardgrass (Echinochloa crus-galli, ECHCG); assay: as above; conditions: pre-emerge, 14 days after application, scale 0-100
Method in brief: (§1)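 Plants grown in 10 cm pots of sandy loam mix received acetone-dissolved compounds through a moving flat-fan nozzle. Doses ranged from 15 to 1000 g ai/ha. Pre-emerge pots were seeded one day earlier, post-emerge pots 8–21 days earlier. Fourteen days on, each pot was graded 0–100 for damage.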

[3] = test system: green foxtail (Setaria viridis, SETVI); assay: as above; conditions: pre-emerge, 14 days after application, scale 0-100
Method in brief: as §1

[4] = test system: ivyleaf morningglory (Ipomoea hederacea, IPOHE); assay: as above; conditions: pre-emerge, 14 days after application, scale 0-100
Method in brief: as §1

[5] = test system: johnsongrass (Sorghum halepense, SORHA); assay: as above; conditions: pre-emerge, 14 days after application, scale 0-100
Method in brief: as §1

[6] = test system: lambsquarters (Chenopodium album, CHEAL); assay: as above; conditions: pre-emerge, 14 days after application, scale 0-100
Method in brief: as §1

[7] = test system: large crabgrass (Digitaria sanguinalis, DIGSA); assay: as above; conditions: pre-emerge, 14 days after application, scale 0-100
Method in brief: as §1

[8] = test system: sicklepod (Cassia obtusifolia, CASOB); assay: as above; conditions: pre-emerge, 14 days after application, scale 0-100
Method in brief: as §1

[9] = test system: velvetleaf (Abutilon theophrasti, ABUTH); assay: as above; conditions: pre-emerge, 14 days after application, scale 0-100
Method in brief: as §1

[10] = test system: field corn (Zea mays L., var. Dekalb 535, CORN); assay: Pre-emerge test, crop safety; conditions: pre-emerge, 14 days after application, scale 0-100
Method in brief: (§2)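 Herbicidal damage is scored 0 (none) to 100 (complete plant death) two weeks after a simulated field spray. Rates span 15–1000 g ai/ha, delivered in acetone at 187 l/ha. For post-emergence treatments, plants have 2–3 leaves and the spray carries 0.25% v/v non-ionic surfactant.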

[11] = test system: upland rice (Oryza sp., var. Tebonnet, RICE); assay: Pre-emerge test, crop safety; conditions: pre-emerge, 14 days after application, scale 0-100
Method in brief: as §2

[12] = test system: barnyardgrass (Echinochloa crus-galli, ECHCG); assay: Post-emerge test, greenhouse herbicide activity screening; conditions: post-emerge, 14 days after application, rating scale 0-100
Method in brief: (§3)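 Fourteen days after spraying, crop and weed injury was graded visually from 0, no effect, to 100, every plant dead. Test substances were dissolved in acetone and applied at 15–1000 g ai/ha with a flat-fan nozzle. Application was either pre-emergence, one day after sowing, or post-emergence at the 2–3 leaf stage.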

[13] = test system: green foxtail (Setaria viridis, SETVI); assay: as above; conditions: post-emerge, 14 days after application, rating scale 0-100
Method in brief: as §3

[14] = test system: ivyleaf morningglory (Ipomoea hederacea, IPOHE); assay: as above; conditions: post-emerge, 14 days after application, rating scale 0-100
Method in brief: as §3

[15] = test system: lambsquarters (Chenopodium album, CHEAL); assay: as above; conditions: post-emerge, 14 days after application, rating scale 0-100
Method in brief: as §3

[16] = test system: large crabgrass (Digitaria sanguinalis, DIGSA); assay: as above; conditions: post-emerge, 14 days after application, rating scale 0-100
Method in brief: as §3

[17] = test system: redroot pigweed (Amaranthus retroflexus, AMARE); assay: as above; conditions: post-emerge, 14 days after application, rating scale 0-100
Method in brief: as §3

[18] = test system: sicklepod (Cassia obtusifolia, CASOB); assay: as above; conditions: post-emerge, 14 days after application, rating scale 0-100
Method in brief: as §3

[19] = test system: velvetleaf (Abutilon theophrasti, ABUTH); assay: as above; conditions: post-emerge, 14 days after application, rating scale 0-100
Method in brief: as §3

[20] = test system: field corn (Zea mays L., var. Dekalb 535, CORN); assay: Post-emerge test, crop safety; conditions: post-emerge, 14 days after application, rating scale 0-100
Method in brief: (§4)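 Each test used a mechanized track sprayer delivering 187 l/ha of acetone solution at 15–1000 g ai/ha. Post-emerge foliage at 2–3 leaves was treated with added 0.25% v/v non-ionic surfactant and bottom-watered only. Injury was assessed on day 14, where 100 means total kill.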

[21] = test system: upland rice (Oryza sp., var. Tebonnet, RICE); assay: Post-emerge test, crop safety; conditions: post-emerge, 14 days after application, rating scale 0-100
Method in brief: as §4

Cn1c(C(F)(F)F)cc(=O)n(-c2ccccc2NC(=O)c2ccc3ccccc3c2)c1=O [2-142]
0: phytotoxicity rating AMARE ([1]; 63 g ai/ha) | phytotoxicity rating ECHCG ([2]; 63 g ai/ha) | phytotoxicity rating ECHCG ([2]; 250 g ai/ha) | phytotoxicity rating SETVI ([3]; 63 g ai/ha) | phytotoxicity rating SETVI ([3]; 250 g ai/ha) | phytotoxicity rating IPOHE ([4]; 63 g ai/ha) | phytotoxicity rating IPOHE ([4]; 250 g ai/ha) | phytotoxicity rating SORHA ([5]; 63 g ai/ha) | phytotoxicity rating SORHA ([5]; 250 g ai/ha) | phytotoxicity rating DIGSA ([7]; 63 g ai/ha) | phytotoxicity rating DIGSA ([7]; 250 g ai/ha) | phytotoxicity rating CASOB ([8]; 63 g ai/ha) | phytotoxicity rating CASOB ([8]; 250 g ai/ha) | phytotoxicity rating ABUTH ([9]; 63 g ai/ha) | phytotoxicity rating ABUTH ([9]; 250 g ai/ha) | phytotoxicity rating CORN (crop damage) ([10]; 63 g ai/ha) | phytotoxicity rating CORN (crop damage) ([10]; 250 g ai/ha) | phytotoxicity rating RICE (crop damage) ([11]; 63 g ai/ha) | phytotoxicity rating RICE (crop damage) ([11]; 250 g ai/ha) | ECHCG phytotoxicity rating ([12]; 63 g ai/ha) | ECHCG phytotoxicity rating ([12]; 250 g ai/ha) | SETVI phytotoxicity rating ([13]; 63 g ai/ha) | SETVI phytotoxicity rating ([13]; 250 g ai/ha) | IPOHE phytotoxicity rating ([14]; 63 g ai/ha) | DIGSA phytotoxicity rating ([16]; 63 g ai/ha) | DIGSA phytotoxicity rating ([16]; 250 g ai/ha) | AMARE phytotoxicity rating ([17]; 63 g ai/ha) | CASOB phytotoxicity rating ([18]; 63 g ai/ha) | ABUTH phytotoxicity rating ([19]; 63 g ai/ha) | RICE phytotoxicity rating (crop damage) ([21]; 250 g ai/ha)
10: CASOB phytotoxicity rating ([18]; 250 g ai/ha) | CORN phytotoxicity rating (crop damage) ([20]; 63 g ai/ha) | RICE phytotoxicity rating (crop damage) ([21]; 63 g ai/ha)
70: phytotoxicity rating CHEAL ([6]; 250 g ai/ha)
20: CHEAL phytotoxicity rating ([15]; 63 g ai/ha)
40: phytotoxicity rating AMARE ([1]; 250 g ai/ha) | phytotoxicity rating CHEAL ([6]; 63 g ai/ha) | AMARE phytotoxicity rating ([17]; 250 g ai/ha) | ABUTH phytotoxicity rating ([19]; 250 g ai/ha)
60: CHEAL phytotoxicity rating ([15]; 250 g ai/ha)
50: IPOHE phytotoxicity rating ([14]; 250 g ai/ha)
15: CORN phytotoxicity rating (crop damage) ([20]; 250 g ai/ha)

Cn1c(C(F)(F)F)cc(=O)n(-c2ccc(Cl)cc2NC(=O)C=Cc2ccccc2)c1=O [2-137]
50: phytotoxicity rating ECHCG ([2]; 250 g ai/ha) | phytotoxicity rating DIGSA ([7]; 63 g ai/ha) | phytotoxicity rating CASOB ([8]; 63 g ai/ha) | phytotoxicity rating CASOB ([8]; 250 g ai/ha) | phytotoxicity rating RICE (crop damage) ([11]; 250 g ai/ha)
80: phytotoxicity rating ABUTH ([9]; 63 g ai/ha)
100: phytotoxicity rating AMARE ([1]; 63 g ai/ha) | phytotoxicity rating AMARE ([1]; 250 g ai/ha) | phytotoxicity rating CHEAL ([6]; 63 g ai/ha) | phytotoxicity rating CHEAL ([6]; 250 g ai/ha) | phytotoxicity rating DIGSA ([7]; 250 g ai/ha) | phytotoxicity rating ABUTH ([9]; 250 g ai/ha) | IPOHE phytotoxicity rating ([14]; 63 g ai/ha) | CHEAL phytotoxicity rating ([15]; 63 g ai/ha) | CHEAL phytotoxicity rating ([15]; 250 g ai/ha) | AMARE phytotoxicity rating ([17]; 63 g ai/ha) | AMARE phytotoxicity rating ([17]; 250 g ai/ha) | CASOB phytotoxicity rating ([18]; 63 g ai/ha) | ABUTH phytotoxicity rating ([19]; 63 g ai/ha) | ABUTH phytotoxicity rating ([19]; 250 g ai/ha)
90: IPOHE phytotoxicity rating ([14]; 250 g ai/ha) | CASOB phytotoxicity rating ([18]; 250 g ai/ha)
0: phytotoxicity rating SORHA ([5]; 63 g ai/ha) | phytotoxicity rating CORN (crop damage) ([10]; 63 g ai/ha) | ECHCG phytotoxicity rating ([12]; 63 g ai/ha) | DIGSA phytotoxicity rating ([16]; 63 g ai/ha)
70: phytotoxicity rating SORHA ([5]; 250 g ai/ha) | RICE phytotoxicity rating (crop damage) ([21]; 250 g ai/ha)
30: phytotoxicity rating SETVI ([3]; 63 g ai/ha) | phytotoxicity rating IPOHE ([4]; 63 g ai/ha) | phytotoxicity rating IPOHE ([4]; 250 g ai/ha) | ECHCG phytotoxicity rating ([12]; 250 g ai/ha) | SETVI phytotoxicity rating ([13]; 250 g ai/ha)
10: phytotoxicity rating ECHCG ([2]; 63 g ai/ha) | phytotoxicity rating CORN (crop damage) ([10]; 250 g ai/ha) | SETVI phytotoxicity rating ([13]; 63 g ai/ha) | DIGSA phytotoxicity rating ([16]; 250 g ai/ha) | CORN phytotoxicity rating (crop damage) ([20]; 63 g ai/ha) | RICE phytotoxicity rating (crop damage) ([21]; 63 g ai/ha)
60: phytotoxicity rating SETVI ([3]; 250 g ai/ha) | CORN phytotoxicity rating (crop damage) ([20]; 250 g ai/ha)
20: phytotoxicity rating RICE (crop damage) ([11]; 63 g ai/ha)
